Reference: patent publication US20100028416A1, “DRUG CARRIERS” (Nitto Denko Corporation, priority 2008, published 2010)

System: HSC-T6 cells
Details: 96-well plate, excitation 560 nm, emission 590 nm, FIGS. 8-9, comparison with non-retinoid composition
Method: HSC-T6 cells, which express a vitamin A binding protein receptor, were seeded one day prior to experiment in a 96-well plate (100 μL culture medium per well). […] The solutions were diluted with culture medium and incubated for 15 minutes at room temperature. 15 μL was added to the cells. After incubating the cells in solution, the culture medium was removed. Cells were washed once with DPBS and fresh culture medium was added (100 μL culture medium per well). Absorbance (excitation and emission wavelengths were 560 nm and 590 nm, respectively) was read by a BioTek FLx800 96-well plate fluorescence reader and recorded.

## Texas Red-Dextran-Retinoid
  cell uptake (absorbance; greater absorbance indicates greater cell uptake): greater cellular uptake than the oleic acid composition
